Measurements reported in ChEMBL document CHEMBL1136153, “2-oxoglutarate analogue inhibitors of HIF prolyl hydroxylase” (Bioorg Med Chem Lett, 2003).

Assay: Inhibitory concentration against oxoglutarate oxygenase was determined

IC50: 120 µM
Compound: O=C(O)CCC(S)C(=O)O (stereo unspecified)
